The source of these data is patent US8653087B2, “Pyrido [5, 4-D] pyrimidines as cell proliferation inhibitors” (Boehringer Ingelheim International GmbH, priority 2008, dated 2014).

The target in this assay is B-Raf (V600E)-kinase (Homo sapiens (Human), UniProt P15056, V600E). Nature of the assay: Kinase test B-RAF (V600E). Type of assay: biochemical. The following applies: B-RAF (V600E) kinase test, 250 μM ATP. The method, boiled down:
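Read-out is DELFIA europium TRF of phospho-MEK (Ser217/221) on biotinylated MEK1 bound to streptavidin plates, IC50 from dose-response. Reaction ran 60 min at RT with 250 μM ATP, after a 24 h RT preincubation of compound with B-Raf (V600E) kinase, 5% DMSO final.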

B-Raf (V600E)-kinase, sequence (P15056 whole entry V600E): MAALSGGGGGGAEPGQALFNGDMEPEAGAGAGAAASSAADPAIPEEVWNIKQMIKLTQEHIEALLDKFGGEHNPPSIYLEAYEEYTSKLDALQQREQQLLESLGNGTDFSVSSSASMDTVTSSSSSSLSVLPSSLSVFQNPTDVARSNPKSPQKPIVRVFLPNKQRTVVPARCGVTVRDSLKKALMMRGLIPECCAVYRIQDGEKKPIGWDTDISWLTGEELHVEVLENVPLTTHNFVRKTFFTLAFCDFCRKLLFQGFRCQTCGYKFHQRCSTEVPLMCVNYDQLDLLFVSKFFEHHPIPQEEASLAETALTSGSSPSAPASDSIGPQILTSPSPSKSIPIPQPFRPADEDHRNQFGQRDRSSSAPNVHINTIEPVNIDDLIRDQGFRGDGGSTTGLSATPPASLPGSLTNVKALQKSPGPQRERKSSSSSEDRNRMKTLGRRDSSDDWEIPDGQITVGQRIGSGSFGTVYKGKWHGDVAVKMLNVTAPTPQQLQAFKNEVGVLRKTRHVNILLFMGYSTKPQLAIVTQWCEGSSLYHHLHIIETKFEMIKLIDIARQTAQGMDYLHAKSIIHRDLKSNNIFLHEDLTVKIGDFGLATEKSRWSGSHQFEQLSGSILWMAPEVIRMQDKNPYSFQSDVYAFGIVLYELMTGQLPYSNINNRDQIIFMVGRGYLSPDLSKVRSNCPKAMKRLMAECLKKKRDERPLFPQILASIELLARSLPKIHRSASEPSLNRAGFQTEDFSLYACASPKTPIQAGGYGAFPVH

Turning to `Cc1ccc(C(=O)Nc2cc(C(C)(C)C)n[nH]2)cc1Nc1ncnc2cnc(N3CCOCC3)nc12` [III-515], the IC50 was < 1 nM.

As for `COc1ccc(C(=O)Nc2ccc(OC)c(C(F)(F)F)c2)cc1Nc1ncnc2cnc(N3CCCN(C)CC3)nc12` [III-20], the IC50 amounted to 3 nM.

In the case of `Cc1ccc(C(=O)Nc2cc(OCCN3CCCC3)cc(C(F)(F)F)c2)cc1Nc1ncnc2cnc(N3CCOCC3)nc12` [III-523], the midpoint of inhibition, the IC50, lay at 1 nM.

With `Cc1ccc(C(=O)Nc2cc(CN3CCCC3)cc(C(F)(F)F)c2)cc1Nc1ncnc2cnc(N(C)C)nc12` [III-115], the IC50 is 2 nM.

The compound `Cc1ccc(C(=O)Nc2cc(OCCN(C)C)cc(C(F)(F)F)c2)cc1Nc1ncnc2cnc(N3CCC(F)CC3)nc12` [III-145] displayed an IC50 of 2 nM.

For the compound `Cc1ccc(NC(=O)c2cccc(C(F)(F)F)c2)cc1Nc1ncnc2c(N)nc(N3CCCN(c4ncccn4)CC3)nc12` [II-16], the IC50 was 45 nM.

`Cc1ccc(C(=O)Nc2nnc(C(F)(F)F)s2)cc1Nc1ncnc2cnc(N3CCCC3)nc12` [III-264] gave an IC50 of 2600 nM.

On to `Cc1ccc(C(=O)Nc2cccc(C(C)(C)C)c2)cc1Nc1ncnc2cnc(NCC(C)C)nc12` [III-500], for which the concentration for half-maximal inhibition (IC50) is < 1 nM.

`COCCN1CCN(c2ncc3ncnc(N(C)c4cc(C(=O)Nc5cc(C(C)(C)C)on5)ccc4C)c3n2)CC1` [III-582] registered an IC50 of 74 nM.

`Cc1ccc(C(=O)Nc2cccc(C(C)(C)C)c2)cc1Nc1ncnc2cnc(N(C)CCN(C)C)nc12` [III-239]: the midpoint of inhibition, the IC50, lay at 6 nM.

On to `Cc1ccc(NC(=O)c2cccc(C(F)(F)F)c2)cc1Nc1ncnc2c(N)nc(N3CCN(C(C)C)CC3)nc12` [II-17], for which the IC50 was 13 nM.

Regarding `Cc1ccc(C(=O)Nc2ccc(F)c(C(F)(F)F)c2)cc1Nc1ncnc2cnc(N3CCOCC3)nc12` [III-314], it took 9 nM to reach half-maximal inhibition (IC50).

Consider `COc1ccc(NC(=O)c2ccc(Cl)c(Nc3ncnc4cnc(NCCN5CCOCC5)nc34)c2)cc1C(F)(F)F` [III-15], for which it took 5 nM to reach half-maximal inhibition (IC50).

In turn, `COc1ccc(C(C)(C)C)cc1NC(=O)c1ccc(C)c(Nc2ncnc3cnc(N4CCNCC4)nc23)c1` [III-343] showed a half-maximal inhibitory concentration (IC50) of 2 nM.

Compound `Cc1ccc(C(=O)Nc2nnc(C(F)(F)F)s2)cc1Nc1ncnc2cnc(N3CCCN(C)CC3)nc12` [III-282] yielded an IC50 of 1400 nM.

In the case of `Cc1ccc(C(=O)Nc2cc(C(F)(F)F)ccn2)cc1Nc1ncnc2cnc(N3CCCCC3)nc12` [III-335], half-maximal inhibition (IC50) was put at 8 nM.

As to `Cc1ccc(C(=O)Nc2cc(C(C)(C)C)n[nH]2)cc1Nc1ncnc2c(N)nc(N3CCN(CC(C)C)CC3)nc12` [I-37], the IC50 was 4 nM.

For `COCCN1CCN(c2ncc3ncnc(Nc4cc(C(=O)Nc5cccc(C(F)(F)F)c5)ccc4C)c3n2)CC1` [III-423], the IC50 is < 1 nM.

In the case of `Cc1ccc(C(=O)Nc2cccc(C(C)(C)C#N)c2)cc1Nc1ncnc2cnc(N3CC[C@@H](F)C3)nc12` [III-206], the IC50 worked out at 2 nM.

With `Cn1nc(C(C)(C)C)cc1NC(=O)c1cc(Cl)cc(Nc2ncnc3cnc(N4CCOCC4)nc23)c1Cl` [III-375], 2000 nM corresponded to half-maximal inhibition (IC50).

For `Cc1ccc(C(=O)Nc2cccc(C(F)(F)F)c2)cc1Nc1ncnc2cnc(N3CCN(CC4CCN(C)CC4)CC3)nc12` [III-417], the IC50 is < 1 nM.

Take `Cc1ccc(C(=O)Nc2cc(C(F)(F)F)ccn2)cc1Nc1ncnc2cnc(N3CCN(CC4CCN(C)CC4)CC3)nc12` [III-510]: the 50% inhibitory concentration (IC50) is < 1 nM.

Regarding `Cc1ccc(C(=O)Nc2cc(N3CCN(C)CC3)c(F)c(C(F)(F)F)c2)cc1Nc1ncnc2cnc(N3CCN(CC4CCN(C)CC4)CC3)nc12` [III-509], half-maximal inhibition (IC50) required 5 nM.

For `COCCN(C)c1ncc2ncnc(Nc3cc(C(=O)Nc4ccc(OC)c(C(F)(F)F)c4)ccc3C)c2n1` [III-473], the IC50 was 1 nM.

In turn, `Cc1ccc(C(=O)Nc2cc(C(C)(C)C)n[nH]2)cc1Nc1ncnc2c(N)nc(N3CCN4CCCCC4C3)nc12` (centres unmarked) [I-43] returned an IC50 of 4 nM.

The compound `COc1ccc(C(=O)Nc2cc(C(C)(C)C)on2)cc1Nc1ncnc2cnc(N3CCCC3)nc12` [III-82] returned an IC50 of 20 nM.

For the compound `COc1ccc(C(=O)Nc2ccc(OC)c(C(F)(F)F)c2)cc1Nc1ncnc2cnc(NCCCN3CCOCC3)nc12` [III-24], the IC50 was determined as 5 nM.

On to `Cc1ccc(C(=O)Nc2cc(C(F)(F)F)ccn2)cc1Nc1ncnc2cnc(N3CCN(C)CC3)nc12` [III-261], for which the IC50 is < 1 nM.

`Cc1ccc(C(=O)Nc2cc(N(C)CCN(C)C)cc(C(F)(F)F)c2)cc1Nc1ncnc2cnc(NCc3ccncc3)nc12` [III-173]: inhibition was half-maximal at 1 nM (IC50).

`COc1ccc(NC(=O)c2ccc(Cl)c(Nc3ncnc4cnc(N5CCCCC5)nc34)c2)cc1C(F)(F)F` [III-10] had a 50% inhibitory concentration (IC50) of 6 nM.

Compound `Cc1ccc(NC(=O)c2cccc(C(F)(F)F)c2)cc1Nc1ncnc2c(N)nc(NCc3cccnc3)nc12` [II-5] showed a half-maximal inhibitory concentration (IC50) of 50 nM.

Take `Cc1ccc(C(=O)Nc2cc(C(C)(C)C)on2)cc1Nc1ncnc2cnc(NCCCN(C)C)nc12` [III-598]: the IC50 was < 1 nM.

With `CN1CCC(N(C)c2ncc3ncnc(Nc4cc(C(=O)Nc5cc(C(C)(C)C)on5)ccc4F)c3n2)C1` (centres unmarked) [III-400], the IC50 came out at 4 nM.

Compound `Cc1ccc(C(=O)Nc2cccc(C(C)(C)C)c2)cc1Nc1ncnc2cnc(N3CCOCC3)nc12` [III-294] gave an IC50 of 1 nM.

`COCCNc1ncc2ncnc(Nc3cc(C(=O)Nc4cc(C(C)(C)C)on4)ccc3C)c2n1` [III-358] showed an IC50 of 1 nM.

In the case of `Cc1ccc(C(=O)Nc2cc(C(C)(C)C)n[nH]2)cc1Nc1ncnc2cnc(N3CCN(CC4CCOC4)CC3)nc12` (centres unmarked) [III-602], the IC50 came to 9 nM.

`CC(C)(C)c1cc(NC(=O)c2ccc(C(F)(F)F)c(Nc3ncnc4cnc(N5CCOCC5)nc34)c2)no1` [III-63]: the IC50 is 13 nM.

The compound `Cc1ccc(C(=O)Nc2ccc(Cl)c(C(F)(F)F)c2)cc1Nc1ncnc2c(N)nc(N3CCN(C)CC3)nc12` [I-74] displayed an IC50 of 3 nM.

In turn, `COCCN1CCN(c2ncc3ncnc(Nc4cc(C(=O)Nc5cc(C(F)(F)F)ccc5-n5ccnn5)ccc4C)c3n2)CC1` [III-537] came in with an IC50 of 12 nM.

With `Cc1ccc(C(=O)Nc2cc(OCCN(C)C)cc(C(F)(F)F)c2)cc1Nc1ncnc2cnc(N3CCCC3)nc12` [III-150], half-maximal inhibition (IC50) was put at 2 nM.

The compound `Cc1ccc(NC(=O)c2cccc(C(C)(C)C#N)c2)cc1Nc1ncnc2cnc(N3CCC(F)(F)C3)nc12` [IV-33] came in with a half-maximal inhibitory concentration (IC50) of 2 nM.

`COc1ccc(NC(=O)c2ccc(Cl)c(Nc3ncnc4cnc(NCCN(C)C)nc34)c2)cc1C(F)(F)F` [III-14] showed an IC50 of 3 nM.

In the case of `Cc1ccc(C(=O)NC2CCCCC2)cc1Nc1ncnc2cnc(N3CCCCC3)nc12` [III-215], the 50% inhibitory concentration (IC50) was > 10000 nM.

As for `Cc1cn(-c2cc(NC(=O)c3ccc(C)c(Nc4ncnc5cnc(N6CC[C@H](F)C6)nc45)c3)cc(C(F)(F)F)c2)cn1` [III-454], the IC50 is 4 nM.

The compound `COc1ccc(C(=O)Nc2cccc(C(F)(F)F)c2)cc1Nc1ncnc2c(N)nc(N3CCN(CC4CCN(C)CC4)CC3)nc12` [I-33] gave an IC50 of 12 nM.

Consider `Cc1ccc(C(=O)Nc2ccc(C(F)(F)F)cc2)cc1Nc1ncnc2c(N)nc(N3CCCN(C)CC3)nc12` [I-3], for which inhibition was half-maximal at 9 nM (IC50).

Regarding `CC(C)(C)c1cc(NC(=O)c2ccc(Cl)c(Nc3ncnc4cnc(N5CCOCC5)nc34)c2)no1` [III-75], half-maximal inhibition (IC50) required 1 nM.

`Cc1ccc(C(=O)Nc2cc(C(C)(C)C)on2)cc1Nc1ncnc2cnc(N3CCN4CCCC4C3)nc12` (centres unmarked) [III-484] had an IC50 of 3 nM.

The compound `COCCN(C)c1ncc2ncnc(Nc3cc(C(=O)Nc4ccc(OC)c(C(F)(F)F)c4)ccc3Cl)c2n1` [III-4] showed an IC50 of 2 nM.

Compound `Cc1ccc(C(=O)Nc2cc(OCCN(C)C)cc(C(F)(F)F)c2)cc1Nc1ncnc2cnc(N3CCC3)nc12` [III-143] returned an IC50 of 2 nM.

As to `Cc1ccc(C(=O)Nc2cc(C(C)(C)C)on2)cc1N(C)c1ncnc2cnc(NC3CCOC3)nc12` (centres unmarked) [III-581], the midpoint of inhibition, the IC50, lay at 33 nM.

`Cc1ccc(NS(=O)(=O)CC2CCCO2)cc1Nc1ncnc2cnc(N3CCN(C)CC3)nc12` (centres unmarked) [IV-62] displayed a concentration for half-maximal inhibition (IC50) of 2000 nM.

The compound `Cc1ccc(C(=O)Nc2cc(C(C)(C)C)n[nH]2)cc1Nc1ncnc2cncnc12` [V-9] displayed a concentration for half-maximal inhibition (IC50) of 5 nM.

Regarding `COc1ccc(NC(=O)c2ccc(C)c(Nc3ncnc4cnc(N5CCCC5)nc34)c2)cc1C(F)(F)F` [III-445], 2 nM corresponded to half-maximal inhibition (IC50).

In turn, `Cc1ccc(C(=O)Nc2cc(CN3CCCC3)cc(C(F)(F)F)c2)cc1Nc1ncnc2cnc(NCC3CCOC3)nc12` (centres unmarked) [III-104] registered an IC50 of 1 nM.

Compound `Cc1ccc(NS(=O)(=O)CC2CC2)cc1Nc1ncnc2cnc(N3CCN(C)CC3)nc12` [IV-60] displayed a half-inhibitory concentration (IC50) of 2000 nM.

The compound `COCCN1CCN(c2ncc3ncnc(Nc4cc(C(=O)Nc5cc(C(F)(F)F)ccc5N5CCOCC5)ccc4C)c3n2)CC1` [III-534] showed an IC50 of 106 nM.

In turn, `Cc1ccc(C(=O)Nc2cc(N(C)CCN(C)C)cc(C(F)(F)F)c2)cc1Nc1ncnc2c(N)nc(N3CC[C@H](F)C3)nc12` [I-86] displayed an IC50 of 4 nM.

The compound `CN1CCN(c2ncc3ncnc(Nc4cc(Cl)cc(C(=O)Nc5cc(C(C)(C)C)nn5C)c4)c3n2)CC1` [III-378] returned an IC50 of 8 nM.

For `Cc1ccc(C(=O)Nc2cccc(C(F)(F)F)c2)cc1Nc1ncnc2c(N)nc(N3CCN(C4CCN(C)CC4)CC3)nc12` [I-56], the IC50 was < 1 nM.

For `Cc1ccc(C(=O)NC2CC2)cc1Nc1ncnc2cnc(N(C)CCN(C)C)nc12` [III-203], the IC50 is > 10000 nM.

Regarding `Cc1ccc(C(=O)Nc2cc(C(C)(C)C)on2)cc1Nc1ncnc2cnc(N3CCC[C@H]3CO)nc12` [III-363], the IC50 was < 1 nM.

As for `Cc1cc(C(=O)Nc2cc(C(C)(C)C)nn2C)cc(Nc2ncnc3cnc(N4CCOCC4)nc23)c1C` [III-372], inhibition was half-maximal at 5 nM (IC50).

As for `Cc1ccc(C(=O)Nc2ccc3c(c2)OC(F)(F)C(F)(F)O3)cc1Nc1ncnc2cnc(N3CCN(CCN(C)C)CC3)nc12` [III-607], the concentration for half-maximal inhibition (IC50) worked out at 1 nM.

With `CN(C)CCN(C)c1ncc2ncnc(Nc3cc(C(=O)Nc4cc(C(C)(C)C)on4)ccc3Cl)c2n1` [III-79], the IC50 was found to be 1 nM.

The IC50 is the concentration that gives 50% inhibition. The low end stands for greater potency, the high end for weaker potency.
